# Results as given in US8642510B2, “Inhibitors for brassinosteroid signalling” (GMI-Gregor Mendel-Institut fuer Molekulare Pflanzenbiologie …, priority 2008, dated 2014).
# Entries after “also recorded” stand apart in the source; their conditions may differ.
# Key:
# [1] = Determination of pKa values; conditions: pH5.8, the pH of the medium
# Experimental: Fifty to 100 mg compound were weighed and dissolved in 50 ml 50% (v/v) methanol. A titration curve with 50 mM NaOH as standard solution was recorded with a Greisinger electonics GPHR 1400A pH meter. The equivalence point was determined by the difference quotient method (ΔpH/ΔVNaOH) and the pKa read from the titration curve at 50% neutralisation.
# cpd mutant seedlings = assay: Physiological test, phenotype rescue of brassinosteroid synthesis mutant cpd; type: in vivo, Arabidopsis thaliana; conditions: 30 μM in medium, 7 days
# Experimental: (§1) FIG. 3: Effects on the phenotype of brassinosteroid mutants. 7-day-old seedlings of the brassinosteroid synthesis mutant cpd and signalling mutant bri1-1 were transferred to MS medium containing 1 μM epi-brassinolide (Epi-BL) or compounds 10 and 15 at a concentration of 30 μM and incubated for 7 days under long day conditions. All pictures were taken at the same magnification. The bar represents 1 mm.
# (§2) Arabidopsis thaliana Co10 or bri1-1 seedlings were grown in vitro on ½ MS plates containing 1% sucrose in a growth camber under long day conditions (16 h light with 50 μE·m^−2·s^−1, 8 h dark) for 7 days. Subsequently, they were transferred to plates supplemented with inhibitors at different concentrations and effects on the phenotype were observed 7 days later.
# (§3) Downregulation of ASK activity is crucial in brassinosteroid signalling. ASKs are constitutively active in cpd and bril-1 mutants, which are defective in brassinosteroid biosynthesis or signalling, respectively. This leads to severely dwarfed plants with dark green downward curled leaves and shortened hypocotyls. […] To screen for in vivo potency, cpd and bril-1 mutants were transferred to media containing 4-[(5-bromo-2-pyridinyl)amino]-4-oxobutanoic acid derivatives at a concentration of 30 μM. […] The potency to rescue the phenotype correlated with the results of the in vitro assay.
# [2] = Cell-permeability assay (uptake by seedlings); type: in vivo, A. thaliana; conditions: 50 μM in medium
# Experimental: FIG. 6: Methylation increases tissue-permeability. A. thaliana seedlings were incubated in 50 μM solutions of compounds 10 and 15 in ½MS medium. Samples were taken after the indicated time and the in situ levels of compound 15 analysed by HPLC. The solid line represents the results for plants incubated with compound 10 and the dashed line the results for compound 15. The means and standard deviations were calculated from 3 independent assays.
# Two-week-old A. thaliana Co10 seedlings were transferred to ½MS medium containing 50 μM inhibitor. Samples were removed after the indicated time points, rinsed with water, dried with filter paper and frozen in liquid nitrogen. For analysis the plant material was ground to a fine powder in a mortar pre-cooled with liquid nitrogen. […]
# The cell-permeability of a substance is an important characteristic influencing its in vivo potency. The uptake of compounds 10 and 15 by plants was determined by treatment of seedlings with solutions of these compounds and subsequent quantification of the internalised inhibitor concentrations (FIG. 6). Since compound 10 is rapidly converted to 15, only the in situ concentration of 15 was measured. […] While 50 μM were present in the medium, in situ concentrations of about 90 μM could be measured in the case of compound 15 and up to 190 μM in the case of application of compound 10.
# [3] = HPLC-analysis of plant extracts (fate of compound in planta); type: in vivo, A. thaliana; conditions: seedlings infiltrated, HPLC of extracts after 15 min
# Experimental: FIG. 5: Estrified compounds are rapidly hydrolysed in planta. A. thaliana seedlings were infiltrated with ½MS medium containing 50 μM compound 10. Control samples were taken before infiltration (A) and analysed by HPLC. A biotransformation product (marked P) of compound 10 could be observed after 15 min (B). A chromatogram of a mixture of compounds 10, 15, and 17 (labelled with C10, C15 and C17, respectively) is shown for comparison (C). The small boxes inserted into the chromatograms show the UV spectra of the peaks in the range of 220 to 360 nm. mAU, milli absorption units recorded at 250 nm.
# Two-week-old A. thaliana Co10 seedlings were vacuum infiltrated with ½MS or ½MS containing […] compound 10 as described previously (Rozhon et al., 2005). After 15 min and after 48 h samples were taken, rinsed with water and ground in liquid nitrogen to a fine powder. 100 mg powder were weighed into a reaction tube and 1 ml extraction buffer (20 mM TRIS/HCl pH6.8 dissolved in 20% acetonitrile) was added. […] The extracts were analysed by HPLC with the same settings as mentioned above.
# To investigate these conflicting results, the fate of compound 10 in vivo was investigated. Seedlings were infiltrated with compound 10 and plant extracts subsequently analysed by HPLC. […]
# [4] = tested on: ASKs (A. thaliana GSK-3/Shaggy-like kinases); assay: In vitro kinase assay, GST-ASK fusion proteins with MBP and γ-[32P]-ATP; type: biochemical, Arabidopsis thaliana; conditions: compounds at 10 μM; result in words
# Experimental: GST-ASK fusion proteins were incubated with MBP as substrate and γ-[32P]-ATP as co-substrate in the absence (−) or presence of different derivatives (the numbers correspond to Table 1). […] The compounds were used at a concentration of 10 μM. The proteins were separated by SDS-PAGE and the incorporated radioactive phosphate detected with a storage phosphor imager screen.
# ASKs were expressed as GST-fusion proteins in E. coli BL21. In vitro kinase assays were performed by incubating 50 ng GST-fusion protein, 10 μg myelin basic protein (MBP; Sigma, St Louis, Mo.) as substrate and 0.15 MBq γ-[32P]-ATP as co-substrate at 25° C. for 30 min. The reaction buffer consisted of 20 mM HEPES pH7.4, 15 mM MgCl2, 5 mM EGTA and 1 mM DTT. For initial experiments cold ATP was included at concentrations up to 3 μM. The reaction products were separated by SDS-PAGE and the amount of radioactivity incorporated into MBP quantified using an Amersham storage phosphor imager screen and a Biorad Molecular Imager FX. In vivo kinase activity was detected by phosphorylation band-shift assays using BZR1-CFP as substrate.
# Representatives of all groups were expressed as recombinant GST fusion proteins in E. coli.
# bri1-1 mutant seedlings = assay: Physiological test, phenotype rescue of brassinosteroid signalling mutant bri1-1; type: in vivo, Arabidopsis thaliana; conditions: 30 μM in medium, 7 days
# Experimental: as §1, §2, §3
structure (smiles),measurement,setting,value
"COC(=O)CCC(=O)Nc1ccc(I)cn1 [Compound 10, 4-[(5-iodopyrid-2-yl)amino]-4-oxobutanoic acid methyl ester]","Portion undissociated / lipophilic, capable of diffusion through the membrane",[1],100%
same,Rescue of cpd mutant phenotype,cpd mutant seedlings,highly active in vivo
same,Uptake rate relative to compound 15,[2],roughly double
same,Tissue permeability / uptake,[2]; result in words,higher tissue permeability; also recorded: very rapid uptake
same,Stability in planta (hydrolysis of methyl ester to free acid),[3],not stable in vivo but rapidly converted; also recorded: rapidly cleaved off
same,Inhibition of ASKs in vitro (MBP phosphorylation),[4],dramatically reduced inhibitory effects; also recorded: little potency in vitro; also recorded: little or no activity
same,Rescue of bri1-1 mutant phenotype,bri1-1 mutant seedlings,highly active in vivo
